Source: patent US7118767B2, “Pharmaceutical composition for increasing the production of nitric oxide and IFN-γ, and process for preparation thereof” (Jakwang Co., Ltd., priority 2001, dated 2006)

Assays:
macrophages [1] = assay: Inhibitory effect of N^GMMA on NO production induced by liquids of Example 1 in macrophages; type: cell-based, mice; settings: macrophages with liquids (1 mg/mL) of Example 1 and IFN-γ; FIG. 3
Procedure: (§1) The amount of NO production from macrophages was measured by Griess reaction by quantitizing nitrite (NO2^−), oxides of NO, accumulated on the broth. That is, 100 μL of Griess reagents in which 0.1% naphthylethylene diaminedihydrochloride and 1% sulfanilamide is mixed at the same amount and 100 μL of culture media was mixed, and after 10 minutes, absorbance was measured at 540 nm by ELISA reader. Standard curve using sodium nitrite as standard substance was drawn and the concentration of NO was determined from the absorbance.
To investigate if iNOS production from macrophages by the composition of the present invention is included in L-arginine-dependent process, the macrophages were treated liquids (1 mg/mL) of Example 1 in the presence of IFN-γ and NGMMA, the competitive inhibitor of NO production, and the amount of NO production was measured by the same method as Experiment 2.

macrophages [2] = assay: Inhibiting effect on iNOS production by NF-kB inhibitor (NO2^- concentration in macrophages); type: cell-based, mice
Procedure: as §1
Hereupon, macrophages were treated with recombinant IFN-γ (rIFN-γ) and liquids (1 mg/mL) of Example 1 followed by treatment with pyrrolidine dithiocarbamnate (PDTC) and N^α-Tosyl-phenylalanyl chloromethyl ketone (TPCK), which are NF-kB inhitors, respectively and the change of concentration of NO2^− was observed together with control group. The results are shown in the hereinbelow Table 1 [Inhibitory effect on iNOS production by NF-kB inhibitor].

`CNC(=N)NCCC[C@H](N)C(=O)O` [N^GMMA, N^G-monomethyl-L-arginine] was tested, and the “amount of NO production as the amount of N^GMMA increases” value (macrophages [1]) was “tendency to decrease”.

For `S=C(S)N1CCCC1` [PDTC, pyrrolidine dithiocarbamnate], the “Concentration of NO2^-” value (macrophages [2]; rIFN-γ (10 U/mL) + Liquids of Example 1 (1 mg/mL) + PDTC (100 μM)) was 10.5 ± 2.8.

B1: rIFN-γ: recombinant IFN-γ (rIFN-γ), used at 10 U/mL (protein, UniProt P01579 24-161, looked up)
Interferon gamma: QDPYVKEAENLKKYFNAGHSDVADNGTLFLGILKNWKEESDRKIMQSQIVSFYFKLFKNFKDDQSIQKSVETIKEDMNVKFFNSNKKKRDDFEKLTNYSVTDLNVQRKAIHELIQVMAELSPAAKTGKRKRSQMLFRG
With B1 the “Concentration of NO2^-” value (macrophages [2]; rIFN-γ (10 U/mL) only) was 32 ± 3.2.
